Experiments:
[1] = The drug is tested on Z-021 corresponding to metagenome with ENA study accession number: PRJEB37062 and ENA sample accession number: ERS12561820 for biotransformation under anaerobic condition. The drug concentrations were measured over 9 timepoints collected between 0 and 24 hours of incubation by liquid-chromatography-coupled mass spectrometry (LC–MS); conditions: 2 µM
[2] = human gut metagenome, 24 h, 2 µM
[3] = The drug is tested on Z-026 corresponding to metagenome with ENA study accession number: PRJEB37062 and ENA sample accession number: ERS12561825 for biotransformation under anaerobic condition. The drug concentrations were measured over 9 timepoints collected between 0 and 24 hours of incubation by liquid-chromatography-coupled mass spectrometry (LC–MS); conditions: 2 µM
[4] = The drug is tested on Z-009 corresponding to pig gut metagenome with ENA study accession number: PRJEB37062 and ENA sample accession number: ERS12561809 for biotransformation under anaerobic condition. The drug concentrations were measured over 9 timepoints collected between 0 and 24 hours of incubation by liquid-chromatography-coupled mass spectrometry (LC–MS); conditions: 2 µM
[5] = The drug is tested on Z-018 corresponding to pig gut metagenome with ENA study accession number: PRJEB37062 and ENA sample accession number: ERS12561817 for biotransformation under anaerobic condition. The drug concentrations were measured over 9 timepoints collected between 0 and 24 hours of incubation by liquid-chromatography-coupled mass spectrometry (LC–MS); conditions: 2 µM
[6] = The drug is tested on WLS-220 corresponding to human gut metagenome with ENA study accession number: PRJEB37062 and ENA sample accession number: ERS12561769 for biotransformation under anaerobic condition. The drug concentrations were measured over 9 timepoints collected between 0 and 24 hours of incubation by liquid-chromatography-coupled mass spectrometry (LC–MS); conditions: 2 µM
[7] = human gut metagenome, 24 h, 2 µM; remark: listed apart in the source
[8] = The drug is tested on Z-024 corresponding to pig gut metagenome with ENA study accession number: PRJEB37062 and ENA sample accession number: ERS12561823 for biotransformation under anaerobic condition. The drug concentrations were measured over 9 timepoints collected between 0 and 24 hours of incubation by liquid-chromatography-coupled mass spectrometry (LC–MS); conditions: 2 µM
[9] = The drug is tested on WLS-090 corresponding to human gut metagenome with ENA study accession number: PRJEB37062 and ENA sample accession number: ERS12561753 for biotransformation under anaerobic condition. The drug concentrations were measured over 9 timepoints collected between 0 and 24 hours of incubation by liquid-chromatography-coupled mass spectrometry (LC–MS); conditions: 2 µM
[10] = The drug is tested on WLS-086 corresponding to human gut metagenome with ENA study accession number: PRJEB37062 and ENA sample accession number: ERS12561752 for biotransformation under anaerobic condition. The drug concentrations were measured over 9 timepoints collected between 0 and 24 hours of incubation by liquid-chromatography-coupled mass spectrometry (LC–MS); conditions: 2 µM
[11] = The drug is tested on WLS-038 corresponding to human gut metagenome with ENA study accession number: PRJEB37062 and ENA sample accession number: ERS12561745 for biotransformation under anaerobic condition. The drug concentrations were measured over 9 timepoints collected between 0 and 24 hours of incubation by liquid-chromatography-coupled mass spectrometry (LC–MS); conditions: 2 µM
[12] = human gut metagenome, 24 h, 2 µM; remark: listed apart in the source
[13] = human gut metagenome, 24 h, 2 µM; remark: listed apart in the source
[14] = human gut metagenome, 24 h, 2 µM; remark: listed apart in the source
[15] = The drug is tested on WLS-310 corresponding to human gut metagenome with ENA study accession number: PRJEB37062 and ENA sample accession number: ERS12561785 for biotransformation under anaerobic condition. The drug concentrations were measured over 9 timepoints collected between 0 and 24 hours of incubation by liquid-chromatography-coupled mass spectrometry (LC–MS); conditions: 2 µM
[16] = The drug is tested on Z-010 corresponding to metagenome with ENA study accession number: PRJEB37062 and ENA sample accession number: ERS12561810 for biotransformation under anaerobic condition. The drug concentrations were measured over 9 timepoints collected between 0 and 24 hours of incubation by liquid-chromatography-coupled mass spectrometry (LC–MS); conditions: 2 µM
[17] = human gut metagenome, 24 h, 2 µM; remark: listed apart in the source
[18] = The drug is tested on Z-023 corresponding to metagenome with ENA study accession number: PRJEB37062 and ENA sample accession number: ERS12561822 for biotransformation under anaerobic condition. The drug concentrations were measured over 9 timepoints collected between 0 and 24 hours of incubation by liquid-chromatography-coupled mass spectrometry (LC–MS); conditions: 2 µM
[19] = human gut metagenome, 24 h, 2 µM; remark: listed apart in the source
[20] = The drug is tested on Z-028 corresponding to mouse gut metagenome with ENA study accession number: PRJEB37062 and ENA sample accession number: ERS12561827 for biotransformation under anaerobic condition. The drug concentrations were measured over 9 timepoints collected between 0 and 24 hours of incubation by liquid-chromatography-coupled mass spectrometry (LC–MS); conditions: 2 µM
Further: call rule not given here.

Which “Bacterial Biotransformation” value [1] does the source give for `COC(=O)C(c1ccccc1)C1CCCCN1` (centres undefined) [METHYLPHENIDATE] here?
The value was “Compound metabolized”.

What about the “Bacterial Biotransformation” value [2] of the same molecule?
Its value is “Compound NOT metabolized”.

And the “Bacterial Biotransformation” value [3]?
Its value is “Compound NOT metabolized”.

What about the “Bacterial Biotransformation” value [4] of the same molecule?
Its value is “Compound metabolized”.

And the “Bacterial Biotransformation” value [5]?
The value was “Compound metabolized”.

What about the “Bacterial Biotransformation” value [6] of the same molecule?
The value was “Compound metabolized”.

What about the “Bacterial Biotransformation” value [7] of the same molecule?
The value was “Compound NOT metabolized”.

And the “Bacterial Biotransformation” value [8]?
Its value is “Compound metabolized”.

What about the “Bacterial Biotransformation” value [9] of the same molecule?
The value was “Compound metabolized”.

And the “Bacterial Biotransformation” value [10]?
Its value is “Compound NOT metabolized”.

What about the “Bacterial Biotransformation” value [11] of the same molecule?
Its value is “Compound NOT metabolized”.

What about the “Bacterial Biotransformation” value [12] of the same molecule?
Its value is “Compound metabolized”.

What about the “Bacterial Biotransformation” value [13] of the same molecule?
The value was “Compound NOT metabolized”.

What about the “Bacterial Biotransformation” value [14] of the same molecule?
Its value is “Compound NOT metabolized”.

And the “Bacterial Biotransformation” value [15]?
Its value is “Compound NOT metabolized”.

What about the “Bacterial Biotransformation” value [16] of the same molecule?
Its value is “Compound NOT metabolized”.

What about the “Bacterial Biotransformation” value [17] of the same molecule?
The value was “Compound NOT metabolized”.

And the “Bacterial Biotransformation” value [18]?
The value was “Compound metabolized”.

What about the “Bacterial Biotransformation” value [19] of the same molecule?
Its value is “Compound NOT metabolized”.

What about the “Bacterial Biotransformation” value [20] of the same molecule?
The value was “Compound NOT metabolized”.

With `CC(=O)CCCCn1c(=O)c2c(ncn2C)n(C)c1=O` [PENTOXIFYLLINE] as the molecule, how does the “Bacterial Biotransformation” value [1] read?
The value was “Compound NOT metabolized”.

What about the “Bacterial Biotransformation” value [2] of the same molecule?
Its value is “Compound NOT metabolized”.

And the “Bacterial Biotransformation” value [3]?
The value was “Compound NOT metabolized”.

And the “Bacterial Biotransformation” value [4]?
Its value is “Compound NOT metabolized”.

And the “Bacterial Biotransformation” value [5]?
Its value is “Compound NOT metabolized”.

What about the “Bacterial Biotransformation” value [6] of the same molecule?
The value was “Compound NOT metabolized”.

What about the “Bacterial Biotransformation” value [7] of the same molecule?
Its value is “Compound NOT metabolized”.

And the “Bacterial Biotransformation” value [8]?
The value was “Compound NOT metabolized”.

And the “Bacterial Biotransformation” value [9]?
The value was “Compound metabolized”.

And the “Bacterial Biotransformation” value [10]?
The value was “Compound metabolized”.

What about the “Bacterial Biotransformation” value [11] of the same molecule?
Its value is “Compound NOT metabolized”.

And the “Bacterial Biotransformation” value [12]?
The value was “Compound NOT metabolized”.

What about the “Bacterial Biotransformation” value [13] of the same molecule?
Its value is “Compound metabolized”.

And the “Bacterial Biotransformation” value [14]?
The value was “Compound NOT metabolized”.

What about the “Bacterial Biotransformation” value [15] of the same molecule?
Its value is “Compound NOT metabolized”.

And the “Bacterial Biotransformation” value [16]?
The value was “Compound NOT metabolized”.

And the “Bacterial Biotransformation” value [17]?
Its value is “Compound NOT metabolized”.

And the “Bacterial Biotransformation” value [18]?
Its value is “Compound NOT metabolized”.

What about the “Bacterial Biotransformation” value [19] of the same molecule?
The value was “Compound NOT metabolized”.

What about the “Bacterial Biotransformation” value [20] of the same molecule?
The value was “Compound NOT metabolized”.

For `COC(=O)[C@H](c1ccccc1Cl)N1CCc2sccc2C1.O=S(=O)(O)O` [CLOPIDOGREL BISULFATE], which “Bacterial Biotransformation” value [1] is on record?
Its value is “Compound metabolized”.

What about the “Bacterial Biotransformation” value [2] of the same molecule?
The value was “Compound metabolized”.

And the “Bacterial Biotransformation” value [3]?
The value was “Compound metabolized”.

And the “Bacterial Biotransformation” value [4]?
Its value is “Compound metabolized”.

And the “Bacterial Biotransformation” value [5]?
Its value is “Compound metabolized”.

And the “Bacterial Biotransformation” value [6]?
Its value is “Compound metabolized”.

What about the “Bacterial Biotransformation” value [7] of the same molecule?
The value was “Compound metabolized”.

What about the “Bacterial Biotransformation” value [8] of the same molecule?
The value was “Compound metabolized”.

And the “Bacterial Biotransformation” value [9]?
Its value is “Compound metabolized”.

And the “Bacterial Biotransformation” value [10]?
The value was “Compound metabolized”.

And the “Bacterial Biotransformation” value [11]?
The value was “Compound metabolized”.

And the “Bacterial Biotransformation” value [12]?
The value was “Compound metabolized”.

And the “Bacterial Biotransformation” value [13]?
Its value is “Compound metabolized”.

And the “Bacterial Biotransformation” value [14]?
Its value is “Compound metabolized”.

And the “Bacterial Biotransformation” value [15]?
The value was “Compound metabolized”.

And the “Bacterial Biotransformation” value [16]?
Its value is “Compound metabolized”.

And the “Bacterial Biotransformation” value [17]?
Its value is “Compound metabolized”.

And the “Bacterial Biotransformation” value [18]?
Its value is “Compound metabolized”.

What about the “Bacterial Biotransformation” value [19] of the same molecule?
Its value is “Compound metabolized”.

What about the “Bacterial Biotransformation” value [20] of the same molecule?
Its value is “Compound NOT metabolized”.

Which results are given for `Cc1cc(C)cc(OCC2CNC(=O)O2)c1` (centres undefined) [METAXALONE]?
Bacterial Biotransformation [1]: Compound NOT metabolized; Bacterial Biotransformation [2]: Compound NOT metabolized; Bacterial Biotransformation [3]: Compound metabolized; Bacterial Biotransformation [4]: Compound NOT metabolized; Bacterial Biotransformation [5]: Compound NOT metabolized; Bacterial Biotransformation [6]: Compound metabolized; Bacterial Biotransformation [7]: Compound NOT metabolized; Bacterial Biotransformation [8]: Compound NOT metabolized; Bacterial Biotransformation [9]: Compound metabolized; Bacterial Biotransformation [10]: Compound metabolized; Bacterial Biotransformation [11]: Compound metabolized; Bacterial Biotransformation [12]: Compound metabolized; Bacterial Biotransformation [13]: Compound metabolized; Bacterial Biotransformation [14]: Compound NOT metabolized; Bacterial Biotransformation [15]: Compound metabolized; Bacterial Biotransformation [16]: Compound NOT metabolized; Bacterial Biotransformation [17]: Compound metabolized; Bacterial Biotransformation [18]: Compound NOT metabolized; Bacterial Biotransformation [19]: Compound metabolized; Bacterial Biotransformation [20]: Compound NOT metabolized

With `COc1cc(NC(C)CCCN)c2ncccc2c1.O=P(O)(O)O.O=P(O)(O)O` (centres undefined) [PRIMAQUINE PHOSPHATE] as the molecule, how does the “Bacterial Biotransformation” value [1] read?
Its value is “Compound NOT metabolized”.

What about the “Bacterial Biotransformation” value [2] of the same molecule?
Its value is “Compound NOT metabolized”.

What about the “Bacterial Biotransformation” value [3] of the same molecule?
Its value is “Compound NOT metabolized”.

What about the “Bacterial Biotransformation” value [4] of the same molecule?
The value was “Compound NOT metabolized”.

What about the “Bacterial Biotransformation” value [5] of the same molecule?
The value was “Compound NOT metabolized”.

What about the “Bacterial Biotransformation” value [6] of the same molecule?
Its value is “Compound metabolized”.

And the “Bacterial Biotransformation” value [7]?
Its value is “Compound NOT metabolized”.

And the “Bacterial Biotransformation” value [8]?
The value was “Compound NOT metabolized”.

What about the “Bacterial Biotransformation” value [9] of the same molecule?
The value was “Compound metabolized”.

And the “Bacterial Biotransformation” value [11]?
Its value is “Compound NOT metabolized”.

What about the “Bacterial Biotransformation” value [12] of the same molecule?
Its value is “Compound metabolized”.

And the “Bacterial Biotransformation” value [13]?
Its value is “Compound NOT metabolized”.

And the “Bacterial Biotransformation” value [14]?
Its value is “Compound NOT metabolized”.

What about the “Bacterial Biotransformation” value [15] of the same molecule?
Its value is “Compound NOT metabolized”.

What about the “Bacterial Biotransformation” value [16] of the same molecule?
The value was “Compound NOT metabolized”.

What about the “Bacterial Biotransformation” value [17] of the same molecule?
The value was “Compound NOT metabolized”.

And the “Bacterial Biotransformation” value [18]?
The value was “Compound NOT metabolized”.

And the “Bacterial Biotransformation” value [19]?
The value was “Compound NOT metabolized”.

What about the “Bacterial Biotransformation” value [20] of the same molecule?
Its value is “Compound NOT metabolized”.

Source: ChEMBL document CHEMBL5724914, “Linking interpersonal differences in gut microbiota composition and drug biotransformation activity” (2024)
